Experimental data: the supplement of paper PMC10307832

Legend:
Assay in all cases: relative viability (nuclei count vs DMSO), 5 days (fraction); higher = more cells survive
BI-D1870 + Alpelisib = compound: CC(C)CCN1c2nc(Nc3cc(F)c(O)c(F)c3)ncc2N(C)C(=O)C1C [BI-D1870] + Cc1nc(NC(=O)N2CCC[C@H]2C(N)=O)sc1-c1ccnc(C(C)(C)C(F)(F)F)c1 [Alpelisib] (partner 2 µM)
Summary of the method: (§1)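 A single step with final 0.05% Triton X-100, 1% formaldehyde and 1 ug/ml Hoechst fixed the cells and stained nuclei 5 days after treatment. Lung cancer cell lines in 1536-well plates had been treated by pin tool the day after seeding with one drug alone or a fixed anchor-drug dose plus five library-drug doses (not always all listed) in √10 steps, and nuclei were counted on 4× images. Relative viability is the ratio of nuclei in treated wells to nuclei in vehicle wells, taken as the median of duplicate plates.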

BI-D1870 + Phenformin = compound: CC(C)CCN1c2nc(Nc3cc(F)c(O)c(F)c3)ncc2N(C)C(=O)C1C [BI-D1870] + N=C(N)NC(=N)NCCc1ccccc1 [Phenformin] (partner 250 µM)
Summary of the method: as §1

Zebularine + Vorinostat = compound: O=c1ncccn1[C@@H]1O[C@H](CO)[C@@H](O)[C@H]1O [Zebularine] + O=C(CCCCCCC(=O)Nc1ccccc1)NO [Vorinostat] (partner 1 µM)
Summary of the method: as §1

BI-D1870 + Trametinib = compound: CC(C)CCN1c2nc(Nc3cc(F)c(O)c(F)c3)ncc2N(C)C(=O)C1C [BI-D1870] + CC(=O)Nc1cccc(-n2c(=O)n(C3CC3)c(=O)c3c(Nc4ccc(I)cc4F)n(C)c(=O)c(C)c32)c1 [Trametinib] (partner 0.02 µM)
Summary of the method: as §1

| Cell Line | relative viability (BI-D1870 + Alpelisib; first compound 0.04 µM) | relative viability (BI-D1870 + Alpelisib; first compound 0.1265 µM) | relative viability (BI-D1870 + Alpelisib; first compound 0.4 µM) | relative viability (BI-D1870 + Alpelisib; first compound 1.265 µM) | relative viability (BI-D1870 + Alpelisib; first compound 4 µM) | relative viability (BI-D1870 + Phenformin; first compound 0.04 µM) | relative viability (BI-D1870 + Phenformin; first compound 0.1265 µM) | relative viability (BI-D1870 + Phenformin; first compound 0.4 µM) | relative viability (BI-D1870 + Phenformin; first compound 1.265 µM) | relative viability (BI-D1870 + Phenformin; first compound 4 µM) | relative viability (Zebularine + Vorinostat; first compound 1 µM) | relative viability (Zebularine + Vorinostat; first compound 3.162 µM) | relative viability (Zebularine + Vorinostat; first compound 10 µM) | relative viability (Zebularine + Vorinostat; first compound 31.62 µM) | relative viability (Zebularine + Vorinostat; first compound 100 µM) | relative viability (BI-D1870 + Trametinib; first compound 0.04 µM) | relative viability (BI-D1870 + Trametinib; first compound 0.1265 µM) | relative viability (BI-D1870 + Trametinib; first compound 0.4 µM) | relative viability (BI-D1870 + Trametinib; first compound 1.265 µM) | relative viability (BI-D1870 + Trametinib; first compound 4 µM) |
| --- | --- | --- | --- | --- | --- | --- | --- | --- | --- | --- | --- | --- | --- | --- | --- | --- | --- | --- | --- | --- |
| 201T | 1 | 0.935 | 0.976 | 1 | 0.951 | 0.457 | 0.47 | 0.421 | 0.487 | 0.428 | 0.944 | 0.921 | 0.955 | 1.05 | 1.02 | 0.694 | 0.683 | 0.703 | 0.705 | 0.715 |
| A549 | 0.907 | 0.639 | 0.891 | 0.609 | 0.477 | 0.211 | 0.174 | 0.177 | 0.207 | 0.165 | – | – | – | – | – | – | – | – | – | – |
| A-427 | 1.13 | 1.02 | 0.992 | 1.12 | 1.16 | 0.41 | 0.308 | 0.306 | 0.379 | 0.347 | 0.96 | 0.855 | 0.703 | 0.666 | 0.361 | 0.763 | 0.678 | 0.755 | 0.833 | 0.814 |
| ABC-1 | 1.18 | 0.972 | 1.12 | 1.19 | 0.829 | 0.215 | 0.211 | 0.264 | 0.218 | 0.212 | 1.15 | 1.02 | 0.701 | 0.835 | 0.575 | – | – | – | – | – |
| BEN | 1.1 | 0.914 | 1 | 1.13 | 0.884 | 0.272 | 0.29 | 0.273 | 0.314 | 0.243 | 0.701 | 0.603 | 0.486 | 0.411 | 0.373 | 1.01 | 0.896 | 1.05 | 1.04 | 0.963 |
| CAL-12T | 1.53 | 1.14 | 1.11 | 1.05 | 0.793 | 0.647 | 0.452 | 0.583 | 0.461 | 0.302 | 1.16 | 0.96 | 0.452 | 0.897 | 0.54 | 0.353 | 0.305 | 0.405 | 0.351 | 0.311 |
| COR-L23 | 0.978 | 0.731 | 0.875 | 0.722 | 0.449 | 0.461 | 0.438 | 0.499 | 0.407 | 0.324 | 0.511 | 0.475 | 0.389 | 0.299 | 0.174 | 0.75 | 0.536 | 0.589 | 0.622 | 0.572 |
| COR-L 105 | 1.2 | 0.803 | 1.29 | 1.09 | 1.05 | 0.562 | 0.396 | 0.422 | 0.489 | 0.5 | 1.38 | 0.898 | 0.734 | 0.945 | 0.619 | 0.428 | 0.409 | 0.487 | 0.419 | 0.458 |
| Calu-6 | 1 | 0.843 | 0.951 | 0.7 | 0.644 | – | – | – | – | – | – | – | – | – | – | – | – | – | – | – |
| ChaGo-K-1 | – | – | – | – | – | 0.481 | 0.522 | 0.477 | 0.481 | 0.412 | 0.767 | 0.648 | 0.442 | 0.274 | 0.252 | 0.899 | 0.753 | 0.874 | 0.909 | 0.856 |
| EBC-1 | 0.925 | 0.625 | 0.786 | 0.475 | 0.297 | – | – | – | – | – | – | – | – | – | – | – | – | – | – | – |
| EKVX | 0.957 | 0.759 | 0.85 | 0.898 | 0.664 | 0.243 | 0.214 | 0.23 | 0.21 | 0.18 | 0.772 | 0.745 | – | 0.819 | 0.635 | 0.336 | 0.281 | 0.339 | 0.401 | 0.445 |
| EMC-BAC-2 | 0.815 | 0.649 | 0.723 | 0.765 | 0.69 | 0.578 | 0.519 | 0.53 | 0.549 | 0.499 | 0.521 | 0.481 | 0.495 | 0.42 | 0.481 | 1.05 | 0.852 | 0.89 | 1.13 | 1.09 |
| EPLC-272H | 0.967 | 0.878 | 0.836 | 1.01 | 0.953 | 0.36 | 0.262 | 0.289 | 0.28 | 0.2 | 0.419 | 0.32 | – | 0.42 | 0.178 | 0.292 | 0.258 | 0.302 | 0.298 | 0.306 |
| H3255 | 0.702 | 0.658 | 0.722 | 0.894 | 0.742 | 0.408 | 0.323 | 0.334 | 0.356 | 0.367 | 0.793 | 0.864 | – | 0.795 | 0.75 | 0.655 | 0.506 | 0.568 | 0.661 | 0.599 |
| HARA | 0.981 | 0.75 | 0.842 | 1.02 | 0.747 | 0.513 | 0.455 | 0.475 | 0.506 | 0.402 | 0.613 | 0.541 | – | 0.323 | 0.213 | 0.613 | 0.548 | 0.702 | 0.876 | 1.04 |
